Patent publication US8557331B2, “Antifouling method and composition using chromen-4-one derivatives” (The Hong Kong University of Science and Technology, priority 2008, dated 2013)
Converted amounts (≈) assume the structure as drawn.

Legend:
[1] = tested on: larval settlement of the barnacle Balanus amphitrite; experiment: Bioassay for antifouling activity against larval settlement (cyprids, 24-well plate, 24 h)
Experimental: (§1) The larvae were reared in freshly filtered natural seawater (FSW, 0.45 μm, 32S salinity) and fed with Chaetoceros gracilis Schutt at 24° C. in the Coastal Marine Laboratory, the Hong Kong University of Science and Technology (HKUST). Larvae that were competent to settle (called cyprids) were stored for 2 days at 8° C. prior to being used in the bioassays. Ten μl of each test sample dissolved in dimethyl sulfoxide (DMSO) were transferred into a well in 24-well polystyrene plate after the addition of 1 ml of FSW. The control wells contained 1 ml of FSW and 10 μl of DMSO. About 15 cyprids were added in each well with triplicate samples being tested.
as §1, with “freshly filtered nature seawater (FSW,” for “freshly filtered natural seawater (FSW,”, “Technology (HKUST). Cyprids (competent larvae) were stored” for “Technology (HKUST). Larvae that were competent to settle (called cyprids) were stored”, “8° C. (aged cyprids) prior to” for “8° C. prior to”

[2] = tested on: barnacle Balanus amphitrite; experiment: Field experiment: resin-based paint on PVC panels submerged at pier; format: in vivo
Experimental: Test compounds (genistein, Cu2O, or their mixture) were mixed with resin-based paint (Permoglaze, Akzo Nobel Decorative Coatings, Lancashire, UK) with addition of 15% of (w/w) xylene, and then sprayed on the surface of PVC panels (size: 10 cm×10 cm×0.5 cm). Genistein was incorporated into paint by 10 and 20% of the dry weight as the low and high concentrations, respectively. In the experiments of combination effects, both Cu2O and genistein at 10% of dry weight were added. The controls used was a resin based paint with addition of 15% (w/w) of xylene only. Each of the tested paints was mixed for more than 8 h before being spread onto panels. The thickness of each paint film was between 100 and 150 μm. The painted panels were air-dried completely prior to being tied to PVC frames and deployed vertically at a depth of 1-1.5 m at the pier of HKUST from March to June in 2007. The numbers of adult barnacle B. amphitrite on the surface were counted and the density on each panel was calculated after their submergences. Four replicates were tested for each sample.

[3] = Bioassay for antifouling activity against larval settlement (cyprids, 24-well plate, 24 h); settings: Balanus amphitrite (barnacle, cyprid larvae), in vivo
Experimental: as §1
as §1, with “freshly filtered nature seawater (FSW,” for “freshly filtered natural seawater (FSW,”, “Technology (HKUST). Cyprids (competent larvae) were stored” for “Technology (HKUST). Larvae that were competent to settle (called cyprids) were stored”, “8° C. (aged cyprids) prior to” for “8° C. prior to”

[4] = Hydrolysis experiment of genistein (ASTM E895-89, HPLC); format: physicochemical; settings: 50° C. in dark, a week
Experimental: The experiments were carried out according to the method described in ASTM (1993). Buffer solutions consisting of 20 mM of sodium acetate were prepared with adjusted pH level at 5, 7, and 9. FSW was the same as those used in bioassays. Artificial seawater (ASW) was prepared as van't Hoff formula (460 mM NaCl, 10.1 mM KCl, 9.2 mM CaCl2, 35.9 mM MgCl2, 17.5 mM MgSO4, 10 mM Tris-HCl, and pH 8.2). Test solution (900 ml) containing 4 μg genistein was divided into nine test glass tubes (100 ml each), and then the tubes were tightly capped. Immediately after preparation of the test solutions, three tubes were loaded onto a Sep-Pak tC18 ENV column (Waters, USA), preconditioned for use by eluting it with methanol and water under reduced pressure. The column after loading the test sample was eluted with water to remove any salts in the test samples, and was then eluted with 2.5 ml of DMSO. Thus, the eluate was 40 times more concentrated than the sample in the original test solution; this concentrated solution was subjected to HPLC analysis. The HPLC system (600, Waters, USA) was equipped with a photodiode array detector (996, Waters, USA) installed in tandem after outlet of the column (Phenomenex Luna 5λ C18 100A, 250×4.60 mm, 5 micron). The solvents used were (A) 5% acetonitrile and (B) 95% acetonitrile at the isocratic flow rates of (A) 0.53 ml min^−1 and (B) 0.47 ml min^−1 at 40° C., respectively. A volume of ten μl of elute was injected into the column using an autosampler (717plus, Waters, USA). The UV absorption at 1=260 nm was used for quantification. The analytical data were shown as the average value of triplicate analyses. The remaining six tubes were kept at 50° C. in the dark in an incubator for a period of four or seven days according to ASTM Procedure E895-89 (ASTM, 1993). After the incubations, each of three test samples was subjected to HPLC analysis, following the same concentration process as described above to determine the remaining concentration of genistein.

[5] = Amphibalanus amphitrite, Table 2, larval settlement
[6] = Amphibalanus amphitrite, Table 2, larval settlement of Balanus amphitrite, mean ± standard deviation of at least three replicates
[7] = Table 2, LC50 used is the highest concentration causing <50% death of larvae
[8] = judged from LC50/EC50, standard of Avelin et al. (1993): nontoxic if higher than 10
[9] = single compound at 10% of dry weight of paint, three months submergence

| Molecule | EC50 [1, 5] | EC50 [1, 6] | LC50/EC50 [1, 7] | toxicity (in words) ([1]; in vivo) | further results |
| --- | --- | --- | --- | --- | --- |
| COc1c(OC)c(O)c2c(=O)c(OC)c(-c3ccc(O)cc3)oc2c1OC [Sample F-1, 4′,5-dihydroxy-3,6,7,8 tetramethoxy-flavone] | ~3 µg/mL (≈ 8.01 µM) | 3.4 ± 0.5 µg/mL (≈ 9.08 µM) | >14.7 | almost no toxicity |  |
| COc1ccc(-c2coc3c(OC)c(O)ccc3c2=O)cc1 [Sample F-2, 7-hydroxy-8,4′-dimethoxyisoflavone] |  | 13.3 ± 2.5 µg/mL (≈ 44.6 µM) | >7.50 |  |  |
| COc1ccc(-c2oc3cc(OC)c(OC)c(O)c3c(=O)c2OC)cc1O [Sample F-3] | ~3 µg/mL (≈ 8.01 µM) | 3 ± 0.4 µg/mL (≈ 8.01 µM) | >16.7 | almost no toxicity |  |
| COc1cc2oc(-c3ccc(O)cc3)c(OC)c(=O)c2c(O)c1OC [Sample F-4, 4′,5,-dihydroxy-3,6,7-trimethoxy-flavone] | ~3 µg/mL (≈ 8.71 µM) | 2.5 ± 0.3 µg/mL (≈ 7.26 µM) | >20.0 | almost no toxicity |  |
| C[C@@H]1O[C@@H](OC[C@H]2O[C@@H](Oc3c(-c4ccc(O)c(O)c4)oc4cc(O)cc(O)c4c3=O)[C@H](O)[C@@H](O)[C@@H]2O)[C@H](O)[C@H](O)[C@H]1O [Sample F-5, neoisorutin] |  |  | >5.0 |  | EC50 ([1]; Table 2, larval settlement of Balanus amphitrite, mean ± standard deviation of at least three replicates): 40.1 ± 3.4 µg/mL (≈ 65.7 µM) |
| O=c1c(O)c(-c2ccc(O)cc2)oc2cc(O)cc(O)c12 [Sample F-6, kaempferol] |  | 9.6 ± 1.4 µg/mL (≈ 33.5 µM) | >5.2 |  |  |
| COc1ccc(-c2oc3cc(OC)cc(O)c3c(=O)c2O)cc1 [Sample F-8, 3,5-dihydroxy-7,4′-dimethoxyflavone] |  | 11.8 ± 2.1 µg/mL (≈ 37.5 µM) | >4.2 |  |  |
| O=c1cc(-c2ccc(O)cc2)oc2cc(O)cc(O)c12 [Sample F-9, 4′,5,7-trihydroxy-flavone] | ~3 µg/mL (≈ 11.1 µM) | 3.1 ± 0.3 µg/mL (≈ 11.5 µM) | >16.1 |  | toxicity (in words) [1, 8]: almost no toxicity |
| O=c1cc(-c2ccc(O)c(O)c2)oc2cc(O)cc(O)c12 [Sample F-10] | ~3 µg/mL (≈ 10.5 µM) | 3.8 ± 0.4 µg/mL (≈ 13.3 µM) |  | almost no toxicity | LC50/EC50 ([1]; Balanus amphitrite, in vivo, 24 h): >13.2 |
| O=c1c(-c2ccc(O)cc2)coc2cc(O)cc(O)c12 [Sample F-12, 4′,5,7-trihydroxy-isoflavone] | 3 µg/mL (≈ 11.1 µM) | 3 ± 0.3 µg/mL (≈ 11.1 µM) | >16.7 |  | density of barnacles fouled on the test panels ([2]; 10% of dry weight of paint, one month submergence, control 0.32 ± 0.039): 0.12 ± 0.031 adults cm^−2; density of barnacles fouled on the test panels ([2]; 10% of dry weight of paint, two months submergence, control 0.71 ± 0.053): 0.57 ± 0.055 adults cm^−2; density of barnacles fouled on the test panels ([2]; 20% of dry weight of paint, one month submergence, control 0.32 ± 0.039): 0.08 ± 0.027 adults cm^−2; density of barnacles fouled on the test panels ([2]; 20% of dry weight of paint, two months submergence, control 0.71 ± 0.053): 0.13 ± 0.029 adults cm^−2; density of barnacles fouled on the test panels [2, 9]: 0.77 ± 0.042 adults cm^−2; EC50 ([1]; 24 h, genistein from Streptomyces fungicidicus, larval settlement, 24 h at 24° C., method of Rittschof et al. (1994)): 3 µg/mL (≈ 11.1 µM); concentration at which inhibitory activity against larvae settlement was observed (as low as) ([1]; FIG. 2): 0.5 µg/mL; LC50/EC50 ([1]; Table 2, genistein purified from extract of Genista tinctoria): > 16.7; larvae settled ([1]; concentration of 8 μg/ml, control 90% settlement): 10%; LC50/EC50 ([1]; genistein from Streptomyces fungicidicus): > 16.7; toxicity (in words) [1, 8]: nontoxic; LC50 at 24 h [3]: > 50 µg/mL; genistein decomposed ([4]; artificial seawater (ASW)): ~35%; genistein decomposed ([4]; filtered natural seawater (FSW)): ~26%; genistein decomposed ([4]; pH 5.0 buffer solution): About 27%; genistein decomposed ([4]; pH 7.0 buffer solution): ~31%; genistein decomposed ([4]; pH 9.0 buffer solution): ~37% |
| COc1ccc(-c2oc3c(CC=C(C)C)c(O[C@@H]4O[C@H](CO)[C@@H](O)[C@H](O)[C@H]4O)cc(O)c3c(=O)c2O[C@@H]2O[C@@H](C)[C@H](O)[C@@H](O)[C@H]2O)cc1 [Sample F-16, icariin] |  | 35.3 ± 4.2 µg/mL (≈ 52.2 µM) | >2.8 |  |  |
| O=c1cc(-c2ccccc2)oc2cccc(O)c12 [Sample F-17, 5-monohydroxy-flavone] | ~3 µg/mL (≈ 12.6 µM) | 2.8 ± 0.3 µg/mL (≈ 11.8 µM) | >17.9 |  | toxicity (in words) [1, 8]: almost no toxicity |
| Cu2O [reference compound] |  |  |  |  | density of barnacles fouled on the test panels [2, 9]: 0.81 ± 0.06 adults cm^−2 |
